Experimental data: article PMC9081605, “A High-Throughput Toxicity Screen of 42 Per- and Polyfluoroalkyl Substances (PFAS) and Functional Assessment of Migration and Gene Expression in Human Placental Trophoblast Cells” (Frontiers in Toxicology, 2022)

Tested on: JEG-3 cells
Experiment: Scratch wound migration assay
Type: cell-based, human
Settings: for Migration, percent of wound closure: 100 µM, after 72 h; for cellular migration relative to vehicle control: after 24 h of exposure, 25-200 µM; for significant effects on migration observed at 24 h, followed to 72 h: any concentration, by 72 h
Protocol: JEG-3 cells were cultured as described in Cell Culture section, and six PFAS were evaluated across an 8-point linear concentration curve ranging from 25 to 200 µM (25 µM steps): PFOA (335-67-1), GenX (62037-80-3), PFOS (1763-23-1), perfluorooctanesulfonamide (PFOSA, 754-91-6), perfluorooctanamide (PFOAA, 423-54-1), and perfluorononanoic acid (PFNA, 375-95-1). The vehicle control group consisted of 98% media + 2% methanol to match the concentration of methanol in the media at the highest PFAS concentration tested (200 µM). Cadmium chloride (25 µM) was used as a positive control for cytotoxicity ([Brooks and Fry, 2017]). Chemical exposure plate maps were designed so that all experimental conditions were tested in at least technical duplicates per plate. The outer edges of each plate received media alone and were excluded from all analyses to avoid edge effects. JEG-3 cells were counted and seeded at a density of 80,000 cells per well in black-walled, clear bottom 96-well plates (Corning #CLS3603, Millipore Sigma) and allowed to adhere and grow for 36 h. After approximately 36 h, 96-well plates were imaged on the IncuCyte Zoom to obtain cellular confluence measurements prior to chemical dosing (0 h). Media was then removed from wells and replaced with fresh serum-free media containing chemical treatments (serum-free exposure media) using the Viaflo liquid handling device. After 1 h of treatment with serum-free exposure media, plates were again imaged for cellular confluence using the IncuCyte Zoom. Serum-free exposure media was then removed from wells and wells were scratched by dragging a 200 µl pipette tip from top to bottom of each well, changing tips every well. Fresh media containing serum and chemical treatments (exposure media) was added to plates using a liquid handling device and allowed to grow for 72 h, with imaging via the IncuCyte Zoom every 6 h.
Plate well bottom images were evaluated using automated cell masking as described in Proliferation section. Cell migration was calculated as the change in cellular confluence from the baseline measurement obtained immediately post-scratch to each subsequent time point (24, 48, and 72 h, post-scratch).
Raw migration assay data exported from IncuCyte software were analyzed using GraphPad Prism 8.0 (GraphPad Software, San Diego, CA)). Prior to analysis, a minimum starting confluence value of 70% was set to ensure comparisons between samples were not skewed. Images with a starting confluence of less than 70% were excluded from analysis. Statistical analysis was performed using multiple unpaired t-tests to compare treated groups to the vehicle control followed by post hoc correction for multiple tests using the Bonferroni-Dunn method. Concentration-response analysis to determine migration assay EC50s was attempted but was not able to be modeled due to the non-linear nature of the concentration-response relationship for this endpoint.

Compound	Migration, percent of wound closure [%]	cellular migration relative to vehicle control	significant effects on migration observed at 24 h, followed to 72 h
N.O=C(O)C(F)(OC(F)(F)C(F)(F)C(F)(F)F)C(F)(F)F (stereo not shown) [Ammonium perfluoro-2-methyl-3-oxahexanoate]	79	significantly reduced	–
O=C(O)C(F)(F)C(F)(F)C(F)(F)C(F)(F)C(F)(F)C(F)(F)C(F)(F)C(F)(F)F [Perfluorononanoic acid]	–	significantly reduced	attenuated
NS(=O)(=O)C(F)(F)C(F)(F)C(F)(F)C(F)(F)C(F)(F)C(F)(F)C(F)(F)C(F)(F)F [Perfluorooctanesulfonamide]	–	significantly reduced	–
O=S(=O)(O)C(F)(F)C(F)(F)C(F)(F)C(F)(F)C(F)(F)C(F)(F)C(F)(F)C(F)(F)F [Perfluorooctanesulfonic acid]	57	significantly reduced	–
O=C(O)C(F)(F)C(F)(F)C(F)(F)C(F)(F)C(F)(F)C(F)(F)C(F)(F)F [Perfluorooctanoic acid]	72	significantly reduced	attenuated
